Like-named read-outs stand apart in the source and are kept apart here.
What was measured:
in vitro [1] = conditions: human
in vitro [2] = conditions: dog
in vitro [3] = conditions: rat, plasma
DEN2 [4] = experiment: microbe, parasite or virus in culture; conditions: Dengue virus, HEK-293T, read-out: 293T DEN2 assay (EC50)
DEN2 [5] = experiment: microbe, parasite or virus in culture; conditions: Dengue virus, THP-1, read-out: THP-1 DEN2 assay (EC50)
DEN2 [6] = experiment: microbe, parasite or virus in culture; conditions: Dengue virus, K562, read-out: K562 DEN2 assay (EC50)
in vitro [7] = conditions: dog, intestinal s9
in vitro [8] = conditions: human, intestinal s9
in vitro [9] = conditions: human, plasma
in vitro [10] = conditions: dog, plasma
[11] = liver s9, Liver S9 T1/2 (min) human
[12] = liver s9, Liver S9 T1/2 (min) dog

For `CCOc1nc(N)nc2c1ncn2C1OC2COP(=O)(NCC(=O)OC(C)C)OC2C1(C)F` (centres unmarked) [compound 16, 16], the half-life (in vitro [1]; [11]) was 0.967 h, the half-life (in vitro [2]; [12]) was 1.52 h and the half-life (in vitro [3]; Plasma T1/2 (min) rat) was < 0.0833 h.
`CCOC(=O)C(C)NP1(=O)OCC2OC(n3cnc4c(OCC)nc(N)nc43)C(C)(F)C2O1` (centres unmarked) [compound 17, 17] gave an EC50 (DEN2 [4]) of 3400 nM, an EC50 (DEN2 [5]) of 460 ± 200 nM and an EC50 (DEN2 [6]) of 2790 ± 220 nM.
Molecule `CCOC(=O)C(NP1(=O)OCC2OC(n3cnc4c(OCC)nc(N)nc43)C(C)(F)C2O1)C(C)C` (centres unmarked) [compound 20, 20] has a half-life (in vitro [1]; [11]) of 1.37 h, a half-life (in vitro [2]; [12]) of 1.02 h and a half-life (in vitro [3]; Plasma T1/2 (min) rat) of 1.1 h.
With `CCOc1nc(N)nc2c1ncn2C1OC2COP(=O)(NC(C)C(=O)OC(C)C)OC2C1(C)F` (centres unmarked) [compound 12, 12] the half-life (in vitro [2]; [12]) was 0.933 h and the half-life (in vitro [3]; Plasma T1/2 (min) rat) was < 0.0833 h.
For `COc1nc(N)nc2c1ncn2[C@@H]1O[C@H](COP(=O)(N[C@@H](C)C(=O)OC(C)C)Oc2ccccc2)[C@@H](O)[C@@]1(C)F` (some centres unmarked) [compound 5, PSI-353661], the half-life (in vitro [7]) was 1.2 h, the half-life (in vitro [1]; liver s9) was 0.3 h and the half-life (in vitro [2]; liver s9) was 0.85 h. The half-life (in vitro [3]) was < 0.0833 h and the half-life (in vitro [8]) was > 2 h.
In the case of `COC(=O)C(C)NP1(=O)OCC2OC(n3cnc4c(OC(C)C)nc(N)nc43)C(C)(F)C2O1` (centres unmarked) [compound 19, 19], the half-life (in vitro [9]) is reported as 1.88 h, the half-life (in vitro [10]) is reported as > 2 h and the half-life (in vitro [3]; Plasma T1/2 (min) rat) is reported as < 0.0833 h.
For `CCOc1nc(N)nc2c1ncn2[C@@H]1O[C@@H]2COP(=O)(OC(C)C)O[C@H]2[C@@]1(C)F` (some centres unmarked) [compound 4, PSI-352938], the half-life (in vitro [1]; [11]) was > 2 h.

Source: article doi:10.1101/2020.04.13.040287v1 (biorxiv, 2020)
